# Test results as given in US7547712B2 (priority 2006, dated 2009).
# Test system: New Zealand White rabbits
# Settings: rabbit, in vivo, sc
# Description: 100 female New Zealand White rabbits were tested according to the study design detailed below (Table 2). The vehicle/adjuvant and test article were administered via intramuscular injection. […] The pumps were surgically implanted subcutaneously. The dose volume of the test article and vehicle was 0.5 ml/kg. The dose rate of the pumps was approximately 5 μl/hr.
# The test article and vehicle/adjuvant formulations were administered to the study animals once at 30 days prior to gestation, once at 9 days prior to gestation, and once on day 12 of gestation.
structure (smiles),measurement,setting,value
CN1CCCC1c1cccnc1 (stereo not drawn) [Nicotine],Mortality,"female, New Zealand White",3
same,Number of Does: Abortion,female,5
same,Number of Does: Found dead/euthanized in extremis,female,2
same,Number of Does: No. Delivered,female,11
same,Number of Does: No. Survived Day 28,female,6
same,Number of Does: No. whole litters dead,female,4
same,Number of Does: Not Pregnant,female,2
same,Number of Kits (Mean) LD 0-7,female,47.8
same,Number of Kits (Mean) LD 7-14,female,100.0
same,Number of Kits (Mean) LD 14-21,female,100.0
same,Number of Kits (Mean) LD 21-28,female,100.0
same,"mean lactation index, representing kit survival from lactation day 0-7",female,47.8%
same,mean number of kits born,female,6.8 kits/liter
same,gestation food consumption,,significantly decreased
same,maternal body weight,,decrease in maternal body weight
